In PubChem BioAssay (NCI):
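The compound was tested at five concentrations on cells cultured in 96-well plates, with a 48-hour exposure period. The concentration for 50% growth inhibition is given as GI50. TGI: concentration producing complete growth inhibition.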

Legend:
Test in all cases: NCI anticancer screen, dose series, 48 h
SR leukemia = test system: SR leukemia
KM12 colon = test system: KM12 colon
786-0 renal = test system: 786-0 renal
SF-295 CNS = test system: SF-295 CNS
A549 NSCLC = test system: A549 NSCLC
LOX IMVI melanoma = test system: LOX IMVI melanoma
SK-OV-3 ovarian = test system: SK-OV-3 ovarian
NCI-H226 lung = test system: NCI-H226 lung
K-562 leukemia = test system: K-562 leukemia
HCC-2998 colon = test system: HCC-2998 colon

Structure (SMILES)	TGI (SR leukemia)	TGI (KM12 colon)	TGI (786-0 renal)	TGI (SF-295 CNS)	TGI (A549 NSCLC)	TGI (LOX IMVI melanoma) [µM]	TGI (SK-OV-3 ovarian)	TGI (NCI-H226 lung)	TGI (K-562 leukemia)	TGI (HCC-2998 colon) [µM]	GI50 (SR leukemia)	GI50 (KM12 colon)	GI50 (HCC-2998 colon) [µM]	GI50 (786-0 renal)	GI50 (SF-295 CNS)	GI50 (A549 NSCLC)	GI50 (SK-OV-3 ovarian)	GI50 (NCI-H226 lung)	GI50 (K-562 leukemia)	GI50 (LOX IMVI melanoma) [µM]
COc1cc2c(cc1OC)-c1c(cnn1C1OC(COC(C)=O)C(OC(C)=O)C(OC(C)=O)C1OC(C)=O)CC2 (stereo not given)	> 28.7 µM	> 100 µM	> 100 µM	> 100 µM	> 100 µM	> 100	> 100 µM	> 100 µM	> 100 µM	–	–	–	–	–	–	–	–	–	–	–
CC1C(=O)N=C2C(=CN(Cc3ccccc3)c3ccccc32)C(=O)N1C (stereo not given)	> 100 µM	> 100 µM	> 100 µM	–	> 100 µM	–	–	> 100 µM	> 100 µM	> 100	–	–	–	–	–	–	–	–	–	–
COc1ccc(C2CC(=O)Nc3c2c(C)nn3-c2nc3ccccc3[nH]2)cc1 (stereo not given)	> 25.1 µM	7.09 µM	> 33.3 µM	4.19 µM	15.1 µM	–	7.83 µM	7.9 µM	> 35.5 µM	> 58.5	2.96 µM	2.72 µM	5.67	3.82 µM	1.7 µM	3.04 µM	3.23 µM	2.58 µM	2.9 µM	–
CCOC(=O)c1sc(=S)c2c(C(=O)c3ccccc3)c(C(=O)c3ccccc3)sc2c1C(=O)OCC	5.98 µM	11 µM	> 100 µM	13.5 µM	> 100 µM	> 100	> 100 µM	> 100 µM	> 100 µM	–	2.58 µM	2.44 µM	–	6.8 µM	2.86 µM	5.17 µM	37.4 µM	6.68 µM	3.21 µM	5.08
COc1ccc(Cl)cc1N1C(=O)C(Cl)=C(Nc2cccc(O)c2)C1=O	54.5 µM	> 100 µM	60.2 µM	82.9 µM	59.2 µM	32.8	> 100 µM	–	46.2 µM	–	13.8 µM	28.7 µM	–	21.1 µM	17.1 µM	20.1 µM	34.2 µM	–	18.5 µM	15.8
Nc1cc(N)c2nc(-c3ccccc3)c(Nc3ccc(F)cc3)nc2c1	> 100 µM	29.5 µM	54.3 µM	32.4 µM	44.6 µM	18	> 100 µM	47.5 µM	> 100 µM	–	5.36 µM	12 µM	–	17.4 µM	14.4 µM	17.2 µM	40.7 µM	17.9 µM	4.97 µM	4.81
O=c1cc/c(=N\Nc2ccccc2)c(=O)/c1=N/Nc1ccccc1	> 50 µM	> 50 µM	> 50 µM	> 50 µM	> 50 µM	> 50	> 50 µM	> 50 µM	> 50 µM	–	> 50 µM	> 50 µM	–	> 50 µM	> 50 µM	> 50 µM	> 50 µM	> 50 µM	> 50 µM	> 50
COc1cc2c(cc1OCCCCCOc1cc(-c3ccc(F)cc3)nc(C)n1)N=C[C@@H]1CCCN1C2=O	> 57.9 µM	> 73.6 µM	> 67.5 µM	> 76.1 µM	> 66.3 µM	31	> 78.8 µM	> 100 µM	> 66.4 µM	–	–	> 48.3 µM	–	> 44.9 µM	> 50.9 µM	> 41.2 µM	> 51.6 µM	> 100 µM	> 21.6 µM	11.1
CSC(=S)N(C)c1nc(=[N+](C)C)ss1	> 100 µM	> 100 µM	> 100 µM	> 100 µM	> 100 µM	–	> 100 µM	> 100 µM	> 100 µM	> 100	–	–	–	–	–	–	–	–	–	–
Cc1cccc(C(C)O)n1 (stereo not given)	> 100 µM	> 100 µM	> 100 µM	> 100 µM	> 100 µM	–	> 100 µM	> 100 µM	> 100 µM	> 100	–	–	–	–	–	–	–	–	–	–
CN1C(c2ccccc2)CC(=Nc2ccccc2)CC1c1ccccc1 (stereo not given)	34.5 µM	–	27.7 µM	31.1 µM	44.9 µM	16.8	8.12 µM	25.6 µM	> 100 µM	–	–	–	–	–	–	–	–	–	–	–
O=[N+]([O-])c1ccc(Cc2nc3ccccc3s2)cc1	> 100 µM	> 100 µM	> 100 µM	> 100 µM	> 100 µM	–	> 100 µM	> 100 µM	> 100 µM	> 100	–	–	–	–	–	–	–	–	–	–
CCCCCCCCCCCCCCCCC(C(=O)O)C(O)(CC(=O)O)C(=O)O (stereo not given)	81 µM	37.3 µM	> 100 µM	35.5 µM	–	66.3	36.1 µM	47.3 µM	> 100 µM	–	–	–	–	–	–	–	–	–	–	–
OCCN(CO)CN(CN(CO)CCO)c1nc(N(CN(CO)CCO)CN(CO)CCO)nc(N(CN(CO)CCO)CN(CO)CCO)n1	2.62 ng/mL	2.8 ng/mL	4.6 ng/mL	3.94 ng/mL	131 ng/mL	–	4.21 ng/mL	2.72 ng/mL	10.6 ng/mL	–	0.742 ng/mL	1.21 ng/mL	–	1.49 ng/mL	1.39 ng/mL	1.81 ng/mL	1.26 ng/mL	1.25 ng/mL	0.559 ng/mL	–
